{
  "source": "patent US10947188B2",
  "about": "“Small molecule ferroptosis inducers” (THE TRUSTEES OF COLUMBIA UNIVERSITY IN THE CITY OF NEW YORK, priority 2016, dated 2021)",
  "tested_on": "HT-1080 cells",
  "test": "Lethality of commercially available CIL41/70 structural analogs",
  "type": "cell-based",
  "details": "Homo sapiens, tested once in technical triplicates",
  "method": "1,000 cells per 36 μl were seeded in each well in 384-well plates. Lethal compounds were dissolved, and a twofold, 12-point dilution series was prepared in DMSO. Compound solutions were further diluted with media at 1:25, and 4 μl per well of the diluted solutions was added to cell cultures immediately after cells were seeded. […] When other cell-death-modulating compounds (100 nM sodium selenite, 1 μM cerivastatin, 100 μg/mL mevalonic acid) were used in cotreatments, they were supplemented to cell culture for 24 h before lethal compounds were added to cell culture, after which cells were further incubated for 24 h at 37° C. under 5% CO2. On the day of the viability measurement, we added 10 μl per well of 50% Alamar Blue diluted in media (Life Technologies) and further incubated the cells at 37° C. for 6 h. Fluorescence intensity (excitation/emission: 530/590) was measured with a Victor 3 plate reader (PerkinElmer), and the normalized viability was calculated as VL=(IL−I0)/(IV−I0), where VL, I0, IV, and IL are the normalized viability and the raw fluorescence intensities from the wells containing media, cells treated with a vehicle (negative control), and cells with the lethal compound (L), respectively. When the effect of a chemical modulator (M) on L was calculated, we instead used the equation VL|M=(IM,L−I0)/(IM,V−I0), where VL|M, IM,L and IM,V are the normalized viability, and fluorescence intensity from cells treated with […], respectively. The viability was typically measured in biological triplicate unless otherwise specified. A representative dose-response curve, the mean and standard error of normalized viability from one replicate were plotted. HT-1080 viability after modulator treatments corresponding to FIG. 3C and FIGS. 5E-5F is available in FIGS. 19A-19C.\nTheir lethality was tested once in HT-1080 cells in technical triplicates.",
  "data": [
    {"smiles": "CCC(C(=O)O/N=C(\\N)Cc1ccc(Cl)cc1Cl)c1ccccc1", "note": "(stereo not shown) [CB98]", "values": [
      {"measurement": "EC50", "value": 4.46, "unit": "µg/mL"}
    ]},
    {"smiles": "Cc1cc(C(F)(F)F)nn1C/C(N)=N/OC(=O)CC12CC3CC(CC(C3)C1)C2", "note": "[ZE8]", "values": [
      {"measurement": "EC50", "value": "> 20", "unit": "µg/mL"}
    ]},
    {"smiles": "NC(/C=C/c1cc(C(F)(F)F)cc(C(F)(F)F)c1)=N\\OC(=O)/C=C/c1ccccc1", "note": "[MB1]", "values": [
      {"measurement": "EC50", "value": "> 20", "unit": "µg/mL"}
    ]},
    {"smiles": "Cc1cc(C)c(C)c(OCC(=O)O/N=C(\\N)Cc2cccc3ccccc23)c1", "note": "[CB121]", "values": [
      {"measurement": "EC50", "value": "> 20", "unit": "µg/mL"}
    ]},
    {"smiles": "N/C(Cc1ccc(Cl)c(Cl)c1)=N\\OC(=O)COc1ccccc1", "note": "[CB48]", "values": [
      {"measurement": "EC50", "value": "> 20", "unit": "µg/mL"}
    ]},
    {"smiles": "COc1ccc(CC(=O)O/N=C(/N)Cn2nc(C)c(Br)c2C)cc1", "note": "[ZE7]", "values": [
      {"measurement": "EC50", "value": "> 20", "unit": "µg/mL"}
    ]},
    {"smiles": "CC(C)(C)C(=O)O/N=C(\\N)COc1ccc(Cl)cc1Cl", "note": "[MB11]", "values": [
      {"measurement": "EC50", "value": "> 20", "unit": "µg/mL"}
    ]},
    {"smiles": "N/C(Cc1ccc(Cl)cc1Cl)=N\\OC(=O)/C=C/c1ccccc1Cl", "note": "[VM3]", "values": [
      {"measurement": "EC50", "value": 8.51, "unit": "µg/mL"}
    ]},
    {"smiles": "N/C(Cc1ccc(Cl)cc1Cl)=N\\OC(=O)CSc1ccccc1", "note": "[CB133]", "values": [
      {"measurement": "EC50", "value": "> 20", "unit": "µg/mL"}
    ]},
    {"smiles": "COc1ccccc1C/C(N)=N/OC(=O)COc1ccc(C)cc1", "note": "[CB29]", "values": [
      {"measurement": "EC50", "value": "> 20", "unit": "µg/mL"}
    ]},
    {"smiles": "Cc1nn(C/C(N)=N/OC(=O)C23CC4CC(CC(C4)C2)C3)c(C)c1[N+](=O)[O-]", "note": "[CB147]", "values": [
      {"measurement": "EC50", "value": 4.88, "unit": "µg/mL"}
    ]},
    {"smiles": "COc1ccc(C/C(N)=N/OC(=O)COc2ccc(C)c(C)c2)cc1", "note": "[CB91]", "values": [
      {"measurement": "EC50", "value": "> 20", "unit": "µg/mL"}
    ]},
    {"smiles": "CC(C)(C)C(=O)O/N=C(\\N)CS(=O)(=O)c1ccc(Cl)cc1", "note": "[MB15]", "values": [
      {"measurement": "EC50", "value": "> 20", "unit": "µg/mL"}
    ]},
    {"smiles": "Cc1ccc(OCC(=O)O/N=C(\\N)Cc2ccc(Cl)cc2Cl)cc1C", "note": "[CB87]", "values": [
      {"measurement": "EC50", "value": "> 20", "unit": "µg/mL"}
    ]},
    {"smiles": "Cc1ccccc1NC(=O)C/C(N)=N/OC(=O)C1CCCN1C(=O)c1ccco1", "note": "(stereo not shown) [EN5]", "values": [
      {"measurement": "EC50", "value": "> 20", "unit": "µg/mL"}
    ]},
    {"smiles": "Cc1ccccc1OCC(=O)O/N=C(\\N)Cc1cccc2ccccc12", "note": "[CB46]", "values": [
      {"measurement": "EC50", "value": "> 20", "unit": "µg/mL"}
    ]}
  ]
}
